Laboratory results from patent US4678800A, “Gamma-r-glutamoyl derivatives” (Ciba-Geigy Corporation, priority 1984, dated 1987).

Key:
[1] = tested on: spontaneous hypertensive rat; assay: in vivo lowering effect on blood pressure and heart rate in hypertensive rats; conditions: dose of 10 mg/kg p.o. or lower
Text: This is demonstrable by in vivo or in vitro animal tests, using advantageously mammals, e.g., rats, cats, dogs or isolated organs thereof, as test objects. The animals may either be normotensive or hypertensive e.g., genetically hypertensive rats, or renal hypertensive rats and dogs, and sodium-depleted dogs. Said compounds can be applied to them enterally or parenterally, advantageously orally or intravenously, for example within gelatin capsules or in the form of starch suspensions or aqueous solutions, respectively. The applied dosage may range between about 0.01 and 50 mg/kg/day, preferably between about 0.1 and 25 mg/kg/day, advantageously between about 0.1 and 10 mg/kg/day.
The in vivo lowering effect on the blood pressure is recorded either directly by means of a catheter, for example placed in the dog's femoral artery, or indirectly by sphygmomanometry at the rat's tail, and a transducer, expressing the blood pressure prior and after dosing in mm Hg. Thus, for example, the representative members of the compounds of this invention, illustrated by the examples herein, are effective in hypertensive rats and at p.o. doses as low or lower than 10 mg/kg/day.

[2] = tested on: angiotensin I converting enzyme; assay: inhibition of the angiotensin I pressor response in anesthetized normotensive rats; format: in vivo, rat; conditions: intravenous dose as low as 0.1 mg/kg
Procedure: The enzyme renin, normally causes specific hydrolysis of the circulating protein renin-substrate. This hydrolysis generates angiotensin I, which is further hydrolyzed by the action of said converting enzyme to the potent vasoconstrictor angiotensin II. The inhibition of said enzyme prevents the generation of angiotensin II from I and, therefore, attenuates any pressure response following an angiotensin I challenge.
The corresponding in vivo test is performed with male, normotensive rats, which are anesthetized with 100-120 mg/kg i.p. of sodium ethyl-(1-methylpropyl)-malonylthiourea. A femoral artery and saphenous vein are cannulated for direct blood pressure measurement and i.v. administration of angiotensin I and compounds of this invention. After the basal blood pressure is stabilized, pressor responses to 3 challenges of 0.33 μg/kg of angiotension I i.v. , in 5 minute intervals, are obtained. Such pressure responses are again obtained 5, 10, 15, 30 and 60 minutes after either i.v. or p.o. administration (stomach tube) of the compounds to be tested, and compared with the initial responses. Any observed decrease of said pressor response is an indication of angiotensin I converting enzyme inhibition, ranging up to 80% or greater after 10 mg/kg i.v., or lower doses, which decrease may be sustained up to 60 minutes.

[3] = molecular target: T1, angiotensin-converting enzyme isolated from lungs of adult male rabbits (Oryctolagus cuniculus, UniProt P12822); assay: in vitro inhibition of the angiotensin-converting enzyme (hippuryl-histidyl-leucine substrate); format: biochemical; conditions: rabbit lung enzyme, 37° for 30 minutes
T1 construct: angiotensin-converting enzyme isolated from lungs of adult male rabbits; from tissue; host or cells: lungs of adult male rabbits
T1 sequence (P12822 34-1310): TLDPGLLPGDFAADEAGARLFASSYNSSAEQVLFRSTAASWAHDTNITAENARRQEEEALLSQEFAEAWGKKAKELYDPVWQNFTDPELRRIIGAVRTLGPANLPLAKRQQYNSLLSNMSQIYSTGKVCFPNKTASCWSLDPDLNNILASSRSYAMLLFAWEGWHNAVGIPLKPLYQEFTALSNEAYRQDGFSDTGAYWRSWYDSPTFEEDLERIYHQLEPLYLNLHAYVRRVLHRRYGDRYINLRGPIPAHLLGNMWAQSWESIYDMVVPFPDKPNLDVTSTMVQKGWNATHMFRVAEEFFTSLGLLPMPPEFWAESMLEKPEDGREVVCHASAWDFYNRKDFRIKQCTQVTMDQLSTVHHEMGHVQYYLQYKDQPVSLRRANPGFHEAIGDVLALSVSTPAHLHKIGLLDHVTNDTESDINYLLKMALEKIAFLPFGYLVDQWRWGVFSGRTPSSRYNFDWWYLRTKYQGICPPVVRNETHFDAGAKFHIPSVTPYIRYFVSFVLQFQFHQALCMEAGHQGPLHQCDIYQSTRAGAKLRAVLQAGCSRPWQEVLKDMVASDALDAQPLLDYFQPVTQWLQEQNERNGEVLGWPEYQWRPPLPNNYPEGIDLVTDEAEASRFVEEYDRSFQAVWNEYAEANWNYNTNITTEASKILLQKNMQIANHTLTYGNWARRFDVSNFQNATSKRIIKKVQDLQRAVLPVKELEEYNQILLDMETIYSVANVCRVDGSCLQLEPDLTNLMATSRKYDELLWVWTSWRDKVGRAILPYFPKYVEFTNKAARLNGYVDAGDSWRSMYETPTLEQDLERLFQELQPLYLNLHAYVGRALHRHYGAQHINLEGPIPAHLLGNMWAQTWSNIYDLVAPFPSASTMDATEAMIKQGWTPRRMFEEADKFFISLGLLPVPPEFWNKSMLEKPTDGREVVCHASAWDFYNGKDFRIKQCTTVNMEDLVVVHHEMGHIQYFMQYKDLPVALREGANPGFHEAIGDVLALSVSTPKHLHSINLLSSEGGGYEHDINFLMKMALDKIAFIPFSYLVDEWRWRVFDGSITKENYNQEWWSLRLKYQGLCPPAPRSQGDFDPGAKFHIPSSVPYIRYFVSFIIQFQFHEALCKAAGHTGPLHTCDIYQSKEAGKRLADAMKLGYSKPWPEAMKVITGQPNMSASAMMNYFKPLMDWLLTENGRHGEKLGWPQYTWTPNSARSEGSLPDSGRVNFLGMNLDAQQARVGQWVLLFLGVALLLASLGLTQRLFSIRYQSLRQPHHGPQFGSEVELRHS
Procedure: Biophys. Acta 293, 451 (1973). According to this method, said compounds are dissolved at about 1 mM concentrations in phosphate buffer, externally cooled with ice. To these solutions various μl of histidyl-leucine in phosphate buffer are added, followed by 100 μl of 5 mM hippuryl-histidyl-leucine in phosphate buffer and 50 μl of the angiotensin-converting enzyme isolated from lungs of adult male rabbits, which is freshly prepared in Tris buffer containing potassium and magnesium chloride, as well as sucrose. Said solutions are incubated at 37° for 30 minutes and combined with 0.75 m- of 0.6 N aqueous sodium hydroxide to stop further reaction. Then 100 μl of o-phthalaldehyde are added at room temperature, and 10 minutes later 100 μl of 6N hydrochloric acid are also added. These samples are read against water in a spectrophotometer set at 360 nm, and the optical densities thereof estimated. They are corrected for the standard curve via a conversion factor expressing nanomoles of histidyl-leucine formed during said 30 minute incubation period. The results are plotted against drug concentration to determine the IC50, i.e., the drug concentration which gives half the activity of the control sample containing no drug. Again, said representative members of the compounds of this invention are very effective in this in vitro test system.

IC50 [3] [nM] | Compound | decrease of heart rate [1] | lowering of blood pressure [1] | inhibition of the pressor response following angiotensin I challenge [2]
~7 | O=C(N[C@H](CCC(=O)N1c2ccccc2C[C@H]1C(=O)O)C(=O)O)OCc1ccccc1 [Example 1, 1-(N-Benzyloxycarbonyl-γ-R-glutamyl)indoline-2-S-carboxylic acid] | decrease the heart rate | lower blood pressure | about 70%
– | O=C(N[C@H](CCC(=O)N1c2ccccc2C[C@H]1C(=O)O)C(=O)O)c1cccnc1 [Example 5, 1-(N-Nicotinoyl-γ-R-glutamyl)-indoline-2S-carboxylic acid] | decrease the heart rate | lower blood pressure | –
